Measurements reported in US8669260B2, “Ketoconazole-derivative antagonist of human pregnane X receptor and uses thereof” (priority 2008, dated 2014).
Read-outs that look alike come from different tables or passages of the source.

Key:
HepG2 cells = settings: for HepG2 cell proliferation (in words): 48 hours
PXR [1] = target: T1, PXR (Homo sapiens, UniProt O75469); assay: PXR transactivation assay (activation mode), HepG2 cells transfected with human PXR-pcDNA3 and CYP3A-Luc; format: cell-based; design: expressed in transfected cells; host or cells: HepG2
T1 sequence (O75469 1-434): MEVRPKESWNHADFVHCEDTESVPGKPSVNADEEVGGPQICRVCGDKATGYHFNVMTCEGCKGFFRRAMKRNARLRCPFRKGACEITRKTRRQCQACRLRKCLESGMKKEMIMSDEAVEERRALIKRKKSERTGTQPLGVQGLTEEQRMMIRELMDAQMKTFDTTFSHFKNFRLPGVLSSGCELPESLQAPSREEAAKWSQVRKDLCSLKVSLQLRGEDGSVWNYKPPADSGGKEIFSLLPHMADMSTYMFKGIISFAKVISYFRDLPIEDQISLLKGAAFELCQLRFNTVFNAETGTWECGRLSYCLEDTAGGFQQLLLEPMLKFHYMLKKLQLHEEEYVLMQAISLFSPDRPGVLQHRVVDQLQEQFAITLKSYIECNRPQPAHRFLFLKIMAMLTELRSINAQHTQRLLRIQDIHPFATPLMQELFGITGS

PXR [2] = target: T1, PXR; assay: cell-based; design: expressed in transfected cells; host or cells: HepG2
[3] = system: Caco-2, LS174T, SKOV3 and CRL cell lines; assay: Drug induced cytotoxicity by MTT assay in cancer and fibroblast cell lines
SKOV-3 cells [4] = assay: Chemotherapeutic sensitivity assay in SKOV-3 cells with and without rifampicin
[5] = system: PXR target genes in SKOV-3 cells; assay: Quantitative RT-PCR of PXR target genes in SKOV-3 cells; format: cell-based; settings: 0-1.0 μM
SKOV-3 cells [6] = settings: MTT; 48-96 hr exposure (T1317: 48 hours, normalized to GSK1385)
LXR = settings: known potency; cited from earlier work
CYP3A4 = CYP3A4 (Homo sapiens, UniProt P08684); assay: Time-dependent CYP3A4 inhibition assay in human liver microsome (midazolam 1-hydroxylase); settings: for Maximum % Inhibition, midazolam-1-hydroxylase activity / IC50: human liver microsome; for IC50: read-out: IC50, midazolam-1-hydroxylase activity
Method: Briefly, test articles were incubated in a reaction mixture containing 5 μM midazolam, 0.1 mg/ml human liver microsomes and 1 mM NADPH for 5 min. The enzyme reaction was stopped by adding an equal volume of quench solution (H2O:acetonitrileformic-acid=94:5:1) containing ^13C-1-hydroxymdiazolam (0.1 μM final) as the internal standard. In order to test time-dependency of CYP3A4 inhibition, an identical reaction was started without midazolam and the reaction mixture was incubated for 30 min. After the pre-incubation, 5 μM midazolam was added and incubated for 5 min before the quench solution was added. The samples were centrifuged at 1,500 RPM for 15 min to precipitate denatured microsomal proteins. […] A percent CYP3A4 inhibition (% Inh) was calculated by the following equation:
[formula] CDMSO and Ccompound are concentrations of 1-hydroxymidazolam in the vehicle control and a compound tested, respectively. A plot of concentration-% Inh was then created and from the plot, IC50 and Maximum % Inhibition were reported.

SKOV-3 xenografts = assay: In vivo SKOV-3 xenograft studies in NOD.SCID mice
Method: HepG2 cells were processed into slides using histogel (Richard-Allan Scientific, Kalamazoo, Mich.). The slides were placed in a 59° C. oven in the morning of the experiments. For cells and tissue specimens, after de-waxing and re-hydrating the slides, slides were placed in a sodium citrate solution, pH 6.0 (Vector labs, Burlingame, Calif.) for 20 minutes. […] Cell sections were then immunostained with the biotin-streptavidin system from Vector Labs per manufacturer's instructions. Institutional IRB approval (#2007-902) was obtained for use of tissue sections from patients with serous papillary ovarian carcinoma and benign ovaries.
2×10^6 SKOV-3 cells were implanted by subcutaneous route into both flanks of NOD.SCID mice. On day 35 after inoculation, the mean (±SD) (n=32) volume of implanted tumor was 8 mm^3 (±3.5) (range: 4.3-18.3). […] Control intravenous injections consisted of 30% polyethylene glycol. The tumor volume was calculated twice a week using the following formula: Length (mm)×[Width (mm)]^2×π/6 (25).

PXR [7] = target: T1, PXR; settings: known potency; cited from earlier work
LS174T cells = assay: LS174T cell growth (trypan blue counting, doubling time); settings: within 72 hours
[8] = non-linear regression, activation by 10 μM rifampicin, read-out: PXR Inhibition IC50

Sequence of CYP3A4 (P08684 whole entry): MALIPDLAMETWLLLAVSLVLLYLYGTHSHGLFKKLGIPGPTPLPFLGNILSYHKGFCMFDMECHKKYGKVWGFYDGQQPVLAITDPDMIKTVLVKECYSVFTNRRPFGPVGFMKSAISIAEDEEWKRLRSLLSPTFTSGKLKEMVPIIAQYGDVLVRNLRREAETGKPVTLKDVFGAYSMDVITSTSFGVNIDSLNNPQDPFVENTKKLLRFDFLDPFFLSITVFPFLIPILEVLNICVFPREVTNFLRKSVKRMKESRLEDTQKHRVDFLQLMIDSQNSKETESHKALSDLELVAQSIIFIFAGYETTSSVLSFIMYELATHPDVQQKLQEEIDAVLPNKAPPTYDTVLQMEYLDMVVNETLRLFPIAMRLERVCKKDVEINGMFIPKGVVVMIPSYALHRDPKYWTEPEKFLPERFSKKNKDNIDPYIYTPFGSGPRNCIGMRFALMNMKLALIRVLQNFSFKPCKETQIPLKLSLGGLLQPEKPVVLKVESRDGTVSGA

In the case of `CC(=O)N1CCN(c2ccc(OCC3COC(Cn4ccnc4)(c4ccc(Cl)cc4Cl)O3)cc2)CC1` (centres unmarked) [Ketoconazole, ketoconazole], the “HepG2 cell proliferation (in words)” value (HepG2 cells; combination of ketoconazole and rifampicin) is reported as “cell proliferation is clearly decreased”, the non-viable cells (HepG2 cells; HepG2, 48 hours, 50 μM) is reported as greater than 35% and the EC50 (PXR [1]) is reported as greater than 50 µM. For the same molecule, the “PXR activation (in words)” value (PXR [1]; PXR transactivation assay) was “weak activator of PXR”, the IC50 (PXR [2]) was 18.7 µM and the “inhibition of rifampicin-mediated PXR activation (in words)” value (PXR [2]) was “inhibitor of activated PXR”. The viability ([3]; across all cell lines tested, effective concentration range for PXR inhibition (two times the IC50 ~30 μM), 48 hours) was 65-75%.
For `CCc1c2c(nc3ccc(O)cc13)-c1cc3c(c(=O)n1C2)COC(=O)[C@]3(O)CC` [SN-38], the “resistance index induced by rifampicin” value (SKOV-3 cells [4]; IC50(R)/IC50 (no R)) was roughly 17.5, the IC50 (SKOV-3 cells [4]; read-out: IC50(R), SKOV-3 cells, with rifampicin) was roughly 3.5 µM and the IC50 (SKOV-3 cells [4]; read-out: IC50 (no R), SKOV-3 cells, without rifampicin) was roughly 0.2 µM.
In the case of `O=S(=O)(c1ccccc1)N(CC(F)(F)F)c1ccc(C(O)(C(F)(F)F)C(F)(F)F)cc1` [T0901317], the “PXR target gene induction (in words)” value [5] is given as “same profile of gene expression”, the “SKOV-3 cell survival (in words)” value (SKOV-3 cells [6]) is given as “significant increase in cell survival” and the EC50 (LXR) is given as […].
In the case of `CC(=O)N1CCN(c2ccc(OC[C@H]3CO[C@@](C)(c4ccc(Cl)cc4Cl)O3)cc2)CC1` [UCL2158H], the “Maximum % Inhibition, midazolam-1-hydroxylase activity” value (CYP3A4; +preincubation (30 min)) is reported as 67%, the “time-dependency of CYP3A4 inhibition” value (CYP3A4; IC50 with vs without 30 min preincubation) is reported as “no time-dependency” and the IC50 (CYP3A4; +preincubation (30 min)) is reported as 19.6 µM. For the same molecule, the IC50 (CYP3A4; −preincubation) was 10.8 µM, the “Maximum % Inhibition, midazolam-1-hydroxylase activity” value (CYP3A4; −preincubation) was 80% and the “Maximum % Activation Observed” value (PXR [1]; PXR transactivation relative to 10 μM rifampicin, HepG2, 24 h, 50 μM-2.5 nM) was 10%. For the same molecule, the EC50 (PXR [1]; non-linear regression analysis, read-out: PXR Activation EC50) was greater than 50 µM, the “Maximum % Inhibition Observed” value (PXR [2]) was 109% and the “inhibition of rifampicin-mediated PXR activation (in words)” value (PXR [2]; PXR transactivation assay) was “most potent inhibitors of PXR”. The IC50 (PXR [2]; [8]) was 14.6 µM, the “PXR Inhibition Imax” value (PXR [2]; non-linear regression, maximal inhibition of PXR activation with 10 μM rifampicin) was 128% and the “cytotoxicity (in words)” value ([3]; epithelial cells, concentration range up to 100 μM, MTT) was “less cytotoxic than ketoconazole”.
In the case of `C/C(=C\c1csc(C)n1)[C@@H]1C[C@@H]2O[C@]2(C)CCC[C@H](C)[C@H](O)[C@@H](C)C(=O)C(C)(C)[C@@H](O)CC(=O)N1` [ixabepilone], the “% increased survival relative to ixabepilone without rifampicin” value (SKOV-3 cells [4]; SKOV-3, ixabepilone 0.1-50 μM in the presence of rifampicin, average) is reported as roughly 20%.
In the case of `CC(=O)O[C@H]1C(=O)[C@@]2(C)[C@H]([C@H](OC(=O)c3ccccc3)[C@]3(O)C[C@H](OC(=O)[C@H](O)[C@@H](NC(=O)c4ccccc4)c4ccccc4)C(C)=C1C3(C)C)[C@]1(OC(C)=O)CO[C@@H]1C[C@@H]2O` [paclitaxel], the IC50 (SKOV-3 cells [4]; Homo sapiens, SK-OV-3, read-out: IC50 with rifampicin (R)) is reported as roughly 40 µM, the IC50 (SKOV-3 cells [4]; Homo sapiens, SK-OV-3, read-out: IC50 without rifampicin (no R)) is reported as roughly 4 µM and the “resistance index induced by rifampicin” value (SKOV-3 cells [4]; IC50 with rifampicin / IC50 without rifampicin) is reported as roughly 10 fold.
With rifampicin the “Ki67 stained cells, mean (SEM)” value (SKOV-3 xenografts; SKOV-3 xenografts, NOD.SCID mice, 40 mg/kg/day i.v., control 577.0 (21), p<0.00001) was 937.0 (37), the “tumor size at necropsy and tumor weight (in words)” value (SKOV-3 xenografts; day 60, versus control) was “significantly larger tumors” and the “tumor volumes (in words)” value (SKOV-3 xenografts; days 45-60, versus controls) was “significantly higher”. For the same molecule, the “HepG2 cell proliferation (in words)” value (HepG2 cells; single agent) was “concentration dependent proliferation of cells”, the EC50 (PXR [7]) was 1 to 2 µM and the IC50 (PXR [2]; [8]) was greater than 50 µM. For the same molecule, the “growth rate constant (k=ln 2/g)” value (LS174T cells; PXR knockdown LS174T cells) was roughly 0.008 hr^−1, the “growth rate constant (k=ln 2/g)” value (LS174T cells; vector-transfected LS174T cells) was roughly 0.02 hr^−1 and the “effect on cytotoxicity of ixabepilone, paclitaxel and SN-38 (in words)” value (SKOV-3 cells [4]; SKOV-3 cells, rifampicin 20 μM) was “significantly decreased the cytotoxicity”.
